One data set has as its target Urease (Canavalia ensiformis, UniProt P07374). The data set can be described thus: Inhibition of jack bean urease using urea as substrate assessed as ammonia production incubated for 15 mins by indophenol method.
Data set [1] deals with Carbonic anhydrase (Homo sapiens) (UniProt P00918+P43166+P00915+P07451+P23280+O43570+Q9ULX7+Q16790+P22748+Q8N1Q1+Q9Y2D0+P35218). The data set can be described thus: Inhibition of carbonic anhydrase (unknown origin). Format: protein assay.
The target of data set [2] is Cholinesterase (Equus caballus) (UniProt P81908). Briefly: Inhibition of equine serum butyrylcholinesterase using […] as substrate preincubated for 15 mins followed by substrate addition measured every 1 min by Ellman's method.
Sequence of Cholinesterase (Equus caballus) (P81908 whole entry): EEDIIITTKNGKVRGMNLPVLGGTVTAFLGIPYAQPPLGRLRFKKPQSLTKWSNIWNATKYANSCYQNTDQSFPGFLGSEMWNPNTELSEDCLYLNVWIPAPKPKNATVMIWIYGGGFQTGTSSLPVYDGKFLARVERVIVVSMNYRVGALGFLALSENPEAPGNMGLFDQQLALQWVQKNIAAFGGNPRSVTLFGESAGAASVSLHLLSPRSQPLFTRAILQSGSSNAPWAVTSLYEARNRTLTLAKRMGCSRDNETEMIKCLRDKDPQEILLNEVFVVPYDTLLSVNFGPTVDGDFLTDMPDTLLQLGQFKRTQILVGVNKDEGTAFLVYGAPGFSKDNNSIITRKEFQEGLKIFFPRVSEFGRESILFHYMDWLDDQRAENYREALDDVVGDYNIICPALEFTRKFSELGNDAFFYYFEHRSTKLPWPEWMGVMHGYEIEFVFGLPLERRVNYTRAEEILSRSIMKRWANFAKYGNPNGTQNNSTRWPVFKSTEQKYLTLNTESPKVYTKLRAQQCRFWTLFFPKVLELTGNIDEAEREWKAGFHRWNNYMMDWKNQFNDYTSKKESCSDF
In another data set the test system is Serpentes. Briefly: Inhibition of snake venom NPP1 using bis(p-nitrophenyl)phosphate as substrate assessed as p-nitrophenol release preincubated for 30 mins by spectrophotometry.
Data set [3] can be described thus: Cytotoxicity against mouse 3T3L1 cells assessed as cell viability at 1 to 20 ug/ml after 48 hrs by MTT assay. The data set is classed as cell-based. Particulars: 3t3-l1, 48 h. (Tetrazolium dyes change colour on reduction, which living cells bring about.)
Data set [4] can be described thus: Cytotoxicity against Wistar rat CC1 cells assessed as cell viability at 1 to 20 ug/ml after 48 hrs by MTT assay. Particulars: cc-1, 48 h. Format: cell-based.

Active and inactive are the calls of the source. No cut-off for these calls is given here.

Sequence of Urease (P07374 whole entry): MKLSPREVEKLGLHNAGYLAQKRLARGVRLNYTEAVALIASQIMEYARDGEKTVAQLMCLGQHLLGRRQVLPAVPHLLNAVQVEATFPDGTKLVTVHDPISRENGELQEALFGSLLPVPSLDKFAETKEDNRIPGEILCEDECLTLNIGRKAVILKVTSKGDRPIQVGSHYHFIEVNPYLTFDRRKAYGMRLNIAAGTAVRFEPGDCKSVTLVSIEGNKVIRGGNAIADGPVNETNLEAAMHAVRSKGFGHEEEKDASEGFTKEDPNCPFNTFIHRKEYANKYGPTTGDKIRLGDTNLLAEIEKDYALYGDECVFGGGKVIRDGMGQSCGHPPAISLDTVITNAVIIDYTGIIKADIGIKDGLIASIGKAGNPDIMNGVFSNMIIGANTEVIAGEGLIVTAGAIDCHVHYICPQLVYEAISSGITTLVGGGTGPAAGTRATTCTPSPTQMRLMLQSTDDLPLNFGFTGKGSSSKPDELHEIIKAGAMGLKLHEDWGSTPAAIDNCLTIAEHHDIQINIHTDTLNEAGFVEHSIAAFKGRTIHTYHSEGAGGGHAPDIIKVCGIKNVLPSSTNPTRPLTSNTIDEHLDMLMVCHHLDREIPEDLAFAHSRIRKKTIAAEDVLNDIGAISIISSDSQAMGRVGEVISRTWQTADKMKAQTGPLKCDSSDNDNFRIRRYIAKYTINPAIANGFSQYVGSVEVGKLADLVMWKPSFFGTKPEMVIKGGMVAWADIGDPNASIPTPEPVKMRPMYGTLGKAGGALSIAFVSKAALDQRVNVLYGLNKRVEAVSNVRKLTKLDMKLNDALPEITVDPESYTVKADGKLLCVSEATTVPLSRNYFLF

A word on the IC50: it is the concentration that inhibits the measured activity by half. As for `NC(N)=S` [THIOUREA], at Urease, the IC50 came to 19.5 µM.
As for `S=C(Nc1ccccc1Br)Nc1ccccc1SSc1ccccc1NC(=S)Nc1ccccc1Br`, the IC50 on Urease stood at 18.6 µM. Besides, the inhibition result (in data set [1]; in data set [2]; in the data set with Serpentes) was “inactive” throughout. Besides, the Activity result in data set [3] and in data set [4] was “Non-toxic” in each case.
As to `Fc1cccc(NC(=S)Nc2ccccc2SSc2ccccc2NC(=S)Nc2cccc(F)c2)c1`, the IC50 at Urease was 1.5 µM. The inhibition result (in data set [1]; in data set [2]; in the data set with Serpentes) was “inactive” throughout. Besides, the Activity result in data set [3] and in data set [4] was “Non-toxic” throughout.
Turning to `S=C(Nc1ccccc1SSc1ccccc1NC(=S)NC12CC3CC(CC(C3)C1)C2)NC12CC3CC(CC(C3)C1)C2`, the IC50 on Urease stood at 17.6 µM. Further, the inhibition entry (in data set [1]; in data set [2]; in the data set with Serpentes) was “inactive” throughout. For the same compound, the Activity entry in data set [3] and in data set [4] was “Non-toxic” in each case.
With `COc1cccc(NC(=S)Nc2ccccc2SSc2ccccc2NC(=S)Nc2cccc(OC)c2)c1`, the IC50 on Urease came to 14.6 µM. In addition, the inhibition entry (in data set [1]; in data set [2]; in the data set on Serpentes) was “inactive” each time. Also, the Activity entry in data set [3] and in data set [4] was “Non-toxic” throughout.
Take `Fc1ccc(NC(=S)Nc2ccccc2SSc2ccccc2NC(=S)Nc2ccc(F)cc2)cc1`: the IC50 on Urease was found to be 0.4 µM. The inhibition entry (in data set [1]; in data set [2]; in the data set with Serpentes) was “inactive” in each case. In addition, the Activity entry in data set [3] and in data set [4] was “Non-toxic” in each case.
Consider `S=C(Nc1cccc(Br)c1)Nc1ccccc1SSc1ccccc1NC(=S)Nc1cccc(Br)c1`, for which, on Urease, the IC50 came to 10.3 µM. The inhibition entry (in data set [1]; in data set [2]; with Serpentes) was “inactive” in each case. For the same compound, the Activity entry in data set [3] and in data set [4] was “Non-toxic” in each case.
Consider `Cc1ccc(NC(=S)Nc2ccccc2SSc2ccccc2NC(=S)Nc2ccc(C)cc2)cc1`, for which, at Urease, the half-maximal inhibitory concentration (IC50) stood at 1.4 µM. Besides, the inhibition result (in data set [1]; in data set [2]; with Serpentes) was “inactive” throughout. Moreover, the Activity result in data set [3] and in data set [4] was “Non-toxic” in each case.
Take `Fc1ccccc1NC(=S)Nc1ccccc1SSc1ccccc1NC(=S)Nc1ccccc1F`: at Urease, the IC50 was determined as 0.7 µM. The inhibition entry (in data set [1]; in data set [2]; in the data set with Serpentes) was “inactive” in each case. The Activity entry in data set [3] and in data set [4] was “Non-toxic” in each case.
In the case of `O=[N+]([O-])c1cccc(NC(=S)Nc2ccccc2SSc2ccccc2NC(=S)Nc2cccc([N+](=O)[O-])c2)c1`, the IC50 on Urease was 12.3 µM. In addition, the inhibition result (in data set [1]; in data set [2]; in the data set on Serpentes) was “inactive” in each case. Also, the Activity result in data set [3] and in data set [4] was “Non-toxic” in each case.
On to `COc1ccc(NC(=S)Nc2ccccc2SSc2ccccc2NC(=S)Nc2ccc(OC)cc2)cc1`, for which the IC50 at Urease is 4.2 µM. Also, the inhibition result (in data set [1]; in data set [2]; in the data set on Serpentes) was “inactive” in each case. Also, the Activity entry in data set [3] and in data set [4] was “Non-toxic” in each case.
As to `S=C(Nc1ccc(Cl)cc1)Nc1ccccc1SSc1ccccc1NC(=S)Nc1ccc(Cl)cc1`, the concentration for half-maximal inhibition (IC50) on Urease stood at 1.6 µM. Further, the inhibition entry (in data set [1]; in data set [2]; in the data set with Serpentes) was “inactive” throughout. Also, the Activity result in data set [3] and in data set [4] was “Non-toxic” in each case.
For `COc1ccccc1NC(=S)Nc1ccccc1SSc1ccccc1NC(=S)Nc1ccccc1OC`, on Urease, the IC50 was found to be 1.7 µM. The inhibition result (in data set [1]; in data set [2]; in the data set on Serpentes) was “inactive” in each case. Besides, the Activity entry in data set [3] and in data set [4] was “Non-toxic” each time.
As for `S=C(Nc1ccccc1Cl)Nc1ccccc1SSc1ccccc1NC(=S)Nc1ccccc1Cl`, at Urease, the IC50 came to 3.4 µM. The inhibition entry (in data set [1]; in data set [2]; in the data set on Serpentes) was “inactive” each time. The Activity result in data set [3] and in data set [4] was “Non-toxic” throughout.
Take `Cc1ccccc1NC(=S)Nc1ccccc1SSc1ccccc1NC(=S)Nc1ccccc1C`: the IC50 on Urease stood at 1.1 µM. The inhibition result (in data set [1]; in data set [2]; with Serpentes) was “inactive” each time. Further, the Activity entry in data set [3] and in data set [4] was “Non-toxic” throughout.
Regarding `S=C(Nc1ccc(Cl)c(Cl)c1)Nc1ccccc1SSc1ccccc1NC(=S)Nc1ccc(Cl)c(Cl)c1`, the IC50 on Urease is 3.2 µM. The inhibition result (in data set [1]; in data set [2]; in the data set on Serpentes) was “inactive” each time. Further, the Activity entry in data set [3] and in data set [4] was “Non-toxic” throughout.
For the compound `FC(F)(F)c1ccc(NC(=S)Nc2ccccc2SSc2ccccc2NC(=S)Nc2ccc(C(F)(F)F)cc2)cc1`, the IC50 on Urease is 1.5 µM. Besides, the inhibition result (in data set [1]; in data set [2]; in the data set on Serpentes) was “inactive” in each case. Besides, the Activity entry in data set [3] and in data set [4] was “Non-toxic” each time.
With `O=[N+]([O-])c1ccc(NC(=S)Nc2ccccc2SSc2ccccc2NC(=S)Nc2ccc([N+](=O)[O-])cc2)cc1`, on Urease, the IC50 came out at 6.4 µM. Further, the inhibition result (in data set [1]; in data set [2]; in the data set with Serpentes) was “inactive” each time. Besides, the Activity entry in data set [3] and in data set [4] was “Non-toxic” throughout.
In the case of `Cc1cccc(NC(=S)Nc2ccccc2SSc2ccccc2NC(=S)Nc2cccc(C)c2)c1`, the IC50 at Urease stood at 3.7 µM. The inhibition result (in data set [1]; in data set [2]; in the data set on Serpentes) was “inactive” in each case. Also, the Activity entry in data set [3] and in data set [4] was “Non-toxic” throughout.
As for `S=C(Nc1ccccc1)Nc1ccccc1SSc1ccccc1NC(=S)Nc1ccccc1`, at Urease, the IC50 is 15.1 µM. Also, the inhibition entry (in data set [1]; in data set [2]; in the data set on Serpentes) was “inactive” in each case. The Activity result in data set [3] and in data set [4] was “Non-toxic” each time.
As to `S=C(Nc1ccc(Br)cc1)Nc1ccccc1SSc1ccccc1NC(=S)Nc1ccc(Br)cc1`, the IC50 at Urease was found to be 4.3 µM. For the same compound, the inhibition entry (in data set [1]; in data set [2]; in the data set on Serpentes) was “inactive” throughout. Further, the Activity entry in data set [3] and in data set [4] was “Non-toxic” each time.

The values above are taken from ChEMBL document CHEMBL3627633, “Synthesis of potent urease inhibitors based on disulfide scaffold and their molecular docking studies” (Bioorg Med Chem, 2015).
